{"source": "paper PMC12130451", "about": "(Scientific Reports, 2025)", "key": {"[1]": {"target": "acetylcholinesterase (AChE, E.C. 3.1.1.7, Type V-S) (Electrophorus electricus, UniProt O42275)", "sequence (O42275 24-633)": "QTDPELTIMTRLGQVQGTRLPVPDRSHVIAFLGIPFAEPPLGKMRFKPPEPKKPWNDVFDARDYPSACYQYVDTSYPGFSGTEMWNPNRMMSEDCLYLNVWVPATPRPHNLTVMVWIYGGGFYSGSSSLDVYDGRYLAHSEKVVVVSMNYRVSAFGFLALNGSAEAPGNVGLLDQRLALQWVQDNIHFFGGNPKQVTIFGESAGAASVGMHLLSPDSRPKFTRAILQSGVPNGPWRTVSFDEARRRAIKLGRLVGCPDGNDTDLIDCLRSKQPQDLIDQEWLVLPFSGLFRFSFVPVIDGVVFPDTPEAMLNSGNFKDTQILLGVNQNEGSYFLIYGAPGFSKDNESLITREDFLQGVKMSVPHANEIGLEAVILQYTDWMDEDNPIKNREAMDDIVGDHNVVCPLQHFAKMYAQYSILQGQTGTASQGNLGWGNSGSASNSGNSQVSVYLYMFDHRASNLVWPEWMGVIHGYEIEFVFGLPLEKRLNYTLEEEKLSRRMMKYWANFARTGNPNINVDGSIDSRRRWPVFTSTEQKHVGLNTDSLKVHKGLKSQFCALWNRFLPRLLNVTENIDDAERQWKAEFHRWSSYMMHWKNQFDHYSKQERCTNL", "experiment": "AChE inhibition, modified Ellman method", "type": "biochemical, electric eel", "details": "read-out: % Inhibition at 50 µM, AChE, Mean ± SE"}, "AChE": {"target": "AChE (Electrophorus electricus, UniProt O42275)", "sequence (O42275 24-633)": "as above", "experiment": "Enzyme kinetic study", "type": "biochemical, electric eel"}}, "data": [{"smiles": "COc1ccc(OC)c(/C=C/C(=O)N2CCCC(NC(=O)OC(C)(C)C)C2)c1", "note": "(stereo not shown) [5o, tert-butyl (E)-(1-(3-(2,5-dimethoxyphenyl)acryloyl)piperidin-3-yl)carbamate]", "values": [{"measurement": "inhibition at 50 µM", "setting": "[1]", "value": 44.1, "unit": "%"}]}, {"smiles": "CC(C)(C)OC(=O)NC1CCCN(C(=O)/C=C/c2ccccc2Cl)C1", "note": "(stereo not shown) [5b, tert-butyl (E)-(1-(3-(2-chlorophenyl)acryloyl)piperidin-3-yl)carbamate]", "values": [{"measurement": "Ki", "setting": "AChE", "value": 10, "unit": "µM"}, {"measurement": "secondary inhibition constant (Kis)", "setting": "AChE; AChE, 1/Vmax vs inhibitor concentration", "value": 36.16, "unit": "µM"}, {"measurement": "type of inhibition", "setting": "AChE; AChE, Lineweaver-Burk plot", "value": "mix-type inhibition"}]}]}
